Reference: the supplement of paper PMC10307832

Key:
Experiment in all cases: relative viability (nuclei count vs DMSO), 5 days (fraction); higher = more cells survive
Tosedostat = compound: CC(C)C[C@@H](C(=O)N[C@H](C(=O)OC1CCCC1)c1ccccc1)[C@H](O)C(=O)NO [Tosedostat]
Outline: (§1)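 Lung cancer cell lines received five library-drug doses (not always all listed) spaced by √10, pinned on vehicle-anchored 1536-well plates after an overnight stay at 37 °C. Five days later, with no medium change, nuclei were Hoechst-stained, imaged at 4× and counted with MetaXpress. Viability is treated-well nuclei relative to vehicle-well nuclei, as a median across plates. Passing plates had control CV below 25% and at least one doubling.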

[1] = compound: CC1=NN=C(O1)C2=NN=C(C=C2)N3CCC(CC3)OC4=C(C=CC(=C4)F)Cl
Outline: as §1

Tosedostat + Alpelisib = compound: CC(C)C[C@@H](C(=O)N[C@H](C(=O)OC1CCCC1)c1ccccc1)[C@H](O)C(=O)NO [Tosedostat] + Cc1nc(NC(=O)N2CCC[C@H]2C(N)=O)sc1-c1ccnc(C(C)(C)C(F)(F)F)c1 [Alpelisib] (partner 2 µM)
Outline: (§2)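 Values are medians from duplicate plates. Each reflects relative viability, defined as the nuclei count of treated wells over that of vehicle wells. Lung cancer cell lines in 1536-well plates were pin-tool dosed one day after seeding with one drug alone or with a fixed anchor-drug dose plus five library-drug doses (not always all listed) in √10 steps, then fixed, stained and imaged at 4× after 5 days.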

[2] = compound: CC1=NN=C(O1)C2=NN=C(C=C2)N3CCC(CC3)OC4=C(C=CC(=C4)F)Cl + CC(C)C[C@H](NC(=O)[C@H](Cc1ccccc1)NC(=O)c1cnccn1)B(O)O [Bortezomib] (partner 0.002 µM)
Outline: as §2

Cell Line | relative viability (Tosedostat; 0.02 µM) | relative viability (Tosedostat; 0.06325 µM) | relative viability (Tosedostat; 0.2 µM) | relative viability (Tosedostat; 0.6325 µM) | relative viability (Tosedostat; 2 µM) | relative viability ([1]; 0.253 µM) | relative viability ([1]; 0.8 µM) | relative viability ([1]; 2.53 µM) | relative viability ([1]; 8 µM) | relative viability (Tosedostat + Alpelisib; first compound 0.02 µM) | relative viability (Tosedostat + Alpelisib; first compound 0.06325 µM) | relative viability (Tosedostat + Alpelisib; first compound 0.2 µM) | relative viability (Tosedostat + Alpelisib; first compound 0.6325 µM) | relative viability (Tosedostat + Alpelisib; first compound 2 µM) | relative viability ([2]; first compound 0.253 µM) | relative viability ([2]; first compound 0.8 µM) | relative viability ([2]; first compound 2.53 µM) | relative viability ([2]; first compound 8 µM)
NCI-H1437 | 1 | 0.987 | 1.05 | 0.97 | 0.889 | 0.741 | 0.642 | 0.707 | 0.632 | 0.984 | 1.05 | 0.969 | 0.828 | 0.506 | 0.31 | 0.342 | 0.424 | 0.342
NCI-H1703 | 0.995 | 0.789 | 0.763 | 0.572 | 0.726 | 0.786 | 0.873 | 0.933 | 0.829 | 0.265 | 0.274 | 0.302 | 0.329 | 0.31 | 0.304 | 0.278 | 0.222 | 0.218
NCI-H2126 | 0.976 | 1.01 | 1.01 | 0.903 | 0.865 | 0.832 | 0.869 | 0.928 | 0.864 | 0.664 | 0.744 | 0.757 | 0.774 | 0.661 | 0.965 | 0.907 | 0.842 | 0.837
LU99A | 1.04 | 1.11 | 0.99 | 0.857 | 0.813 | 1.05 | 0.783 | 0.721 | 0.758 | 0.633 | 0.445 | 0.501 | 0.486 | 0.477 | 1.01 | 1 | 1.06 | 0.953
NCI-H460 | 1.02 | 0.994 | 0.99 | 0.974 | 0.989 | 0.273 | 0.306 | 0.282 | 0.284 | 0.535 | 0.472 | 0.619 | 0.689 | 0.796 | 0.382 | 0.358 | 0.342 | 0.315
LCLC-97TM1 | 1.12 | 0.973 | 0.876 | 0.83 | 0.621 | 0.795 |  | 0.564 | 0.548 | 0.199 |  |  | 0.247 | 0.211 | 0.373 | 0.211 | 0.392 | 0.362
NCI-H838 | 0.965 | 0.957 | 0.951 | 1.01 | 1.11 | 0.885 | 0.752 | 0.886 | 0.78 | 1.03 | 0.903 | 1 | 1.04 | 1.17 | 0.697 | 0.592 | 0.553 | 0.645
SK-LU-1 | 1.1 | 1.09 | 0.92 | 0.938 | 0.854 | 0.935 | 0.783 | 0.943 | 0.722 | 1.19 | 0.981 | 0.772 | 0.842 | 0.491 | 1.08 | 0.86 | 1.12 | 1.02
H3255 | 0.994 | 0.869 | 0.94 | 0.852 | 0.886 | 0.662 | 0.688 | 0.635 | 0.727 | 0.666 | 0.642 | 0.589 | 0.568 | 0.663 | 0.465 | 0.569 | 0.478 | 0.526
NCI-H1651 | 1.06 | 0.984 | 0.973 | 0.921 | 0.899 | 0.819 | 0.795 | 0.784 | 0.682 | 0.832 | 0.92 | 0.996 | 0.995 | 0.924 | 0.782 | 0.708 | 0.649 | 0.686
LXF-289 | 1.08 | 0.987 | 0.992 | 0.993 | 1.05 | 0.712 | 0.616 | 0.737 | 0.653 | 1.03 | 1.05 | 1.03 | 1.07 | 1.1 | 0.682 | 0.674 | 0.753 | 0.619
HCC-827 | 1.03 | 1.06 | 1.1 | 0.957 | 1.01 | 0.47 | 0.297 | 0.455 | 0.443 | 0.826 | 0.934 | 1.02 | 0.842 | 0.875 | 0.514 | 0.381 | 0.524 | 0.523
HCC-366 | 1.02 | 1.01 | 1.03 | 0.979 | 1.01 | 0.484 | 0.469 | 0.508 | 0.482 | 0.331 | 0.357 | 0.376 | 0.382 | 0.342 | 0.394 | 0.438 | 0.436 | 0.395
BEN | 1.01 | 1.03 | 1.09 | 1.3 | 1.2 | 0.895 | 0.959 | 0.974 | 0.821 | 1.09 | 1.01 | 1.15 | 1.28 | 1.26 | 0.726 | 0.771 | 0.932 | 0.719
NCI-H322M | 0.898 | 0.964 | 0.877 | 0.762 | 0.834 | 0.929 | 0.881 | 1.02 | 0.819 | 0.726 | 0.902 | 0.537 | 0.755 | 0.53 | 1.05 | 1.05 | 1.21 | 1.11
201T | 1 | 1 | 1.02 | 1.06 | 1.01 | 0.481 | 0.523 | 0.553 | 0.503 | 0.967 | 1.08 | 1.07 | 1.21 | 1.15 | 0.484 | 0.569 | 0.592 | 0.552
NCI-H661 | 1.01 | 0.991 | 0.948 | 0.926 | 0.934 | 0.859 | 0.816 | 0.731 | 0.71 | 0.736 | 0.627 | 0.428 | 0.594 | 0.531 | 0.695 | 0.539 | 0.801 | 0.669
RERF-LC-KJ | 0.953 | 1.03 | 0.944 | 0.888 | 0.876 | 0.653 | 0.628 | 0.652 | 0.647 | 0.677 | 0.955 | 0.777 | 0.742 | 0.57 | 0.776 | 0.9 | 0.929 | 0.969
HCC-15 | 1.05 | 0.89 | 0.996 | 0.901 | 0.848 | 0.463 | 0.449 | 0.456 | 0.464 | 0.848 | 0.934 | 0.863 | 0.808 | 0.651 | 0.485 | 0.407 | 0.415 | 0.395
NCI-H1666 | 1 | 0.933 | 1.02 | 1.08 | 0.999 | 0.707 | 0.844 | 0.835 | 0.782 | 0.99 | 0.841 | 1.06 | 0.995 | 0.951 | 0.419 | 0.851 | 0.756 | 0.57
ABC-1 | 1.24 | 0.869 | 0.911 | 0.928 | 0.765 | 0.374 | 0.421 | 0.473 | 0.472 | 1.05 | 0.864 | 1.08 | 0.843 | 0.771 | 0.26 | 0.314 | 0.237 | 0.267
LCLC-103H | 1.06 | 0.95 | 1 | 1.11 | 1.07 | 0.604 | 0.71 | 0.705 | 0.632 | 0.896 | 0.95 | 0.948 | 1.11 | 1.07 | 0.69 | 0.829 | 0.744 | 0.675
NCI-H650 | 1.07 | 0.988 | 0.731 | 0.787 | 0.789 | 0.927 | 0.72 | 0.865 | 0.71 | 1 | 1.15 | 1.14 | 0.97 | 0.683 | 0.787 | 0.546 | 0.716 | 0.555
EPLC-272H | 1.06 | 0.984 | 0.763 | 0.593 | 0.428 | 0.987 | 0.716 | 0.887 | 0.828 | 0.777 | 0.999 | 0.719 | 0.747 | 0.505 | 0.667 |  | 1.05 | 0.996
